The values that follow come from patent US11274076B2, “Process for preparing 1, 2-benzenedimethanol compound” (GOWAN COMPANY, L.L.C., priority 2016, dated 2022).

What is called pest or weed control is how far the test organism was held down. Low values mean weak suppression, high ones strong suppression.

For this test, the system named is Pythium graminicola. Kind of test: Test 4: control effect against damping-off disease of rice by Pythium (soil irrigation). In kind it is in vivo. Conditions: 336 h, 1000 ppm test suspension, 2.5 ml soil irrigation, rice (Koshihikari) in contaminated soil, from degree of disease development.
In the case of `CS(=O)(=O)Oc1cccc2c1COC(c1csc(C3CCN(C(=O)Cc4cc(C(F)(F)F)ccc4C(F)(F)F)CC3)n1)OC2` (stereo not shown) [Compound 3-8, 4-[4-(6-methylsulfonyloxy-1,5-dihydro-3H-2,4-benzodioxepin-3-yl)-2-thiazolyl]-1-[2-[2,5-bis(trifluoromethyl)phenyl]acetyl]piperidine], the pest or weed control at 1000 ppm was at least 90%.

As for `CS(=O)(=O)Oc1c(F)ccc2c1COC(c1csc(C3CCN(C(=O)Cn4nc(C(F)F)cc4C(F)F)CC3)n1)OC2` (stereo not shown) [Compound 2-49, 4-[4-(7-fluoro-6-methylsulfonyloxy-1,5-dihydro-3H-2,4-benzodioxepin-3-yl)-2-thiazolyl]-1-[2-[3,5-bis(difluoromethyl)-1H-pyrazol-1-yl]acetyl]piperidine], the pest or weed control at 1000 ppm was at least 90%.

On to `CS(=O)(=O)Oc1cccc2c1COC(c1csc(C3CCN(C(=O)Cn4nc(C(Cl)Cl)cc4C(Cl)Cl)CC3)n1)OC2` (stereo not shown) [Compound 2-38, 4-[4-(6-methylsulfonyloxy-1,5-dihydro-3H-2,4-benzodioxepin-3-yl)-2-thiazolyl]-1-[2-[3,5-bis(dichloromethyl)-1H-pyrazol-1-yl]acetyl]piperidine], for which the pest or weed control at 1000 ppm was at least 90%.

Compound `CS(=O)(=O)Oc1ccc(I)c2c1COC(c1csc(C3CCN(C(=O)Cn4nc(C(F)(F)F)cc4C(F)(F)F)CC3)n1)OC2` (stereo not shown) [Compound 2-46, 4-[4-(6-iodo-9-methylsulfonyloxy-1,5-dihydro-3H-2,4-benzodioxepin-3-yl)-2-thiazolyl]-1-[2-[3,5-bis(trifluoromethyl)-1H-pyrazol-1-yl]acetyl]piperidine] showed a pest or weed control at 1000 ppm of at least 90%.

For the compound `Cc1ccc(C)c(CC(=O)N2CCC(c3nc(C4OCc5c(OS(C)(=O)=O)cc(C)c(C)c5CO4)cs3)CC2)c1` (stereo not shown) [Compound 3-9, 4-[4-(6,7-dimethyl-9-methylsulfonyloxy-1,5-dihydro-3H-2,4-benzodioxepin-3-yl)-2-thiazolyl]-1-[2-(2,5-dimethylphenyl)acetyl]piperidine], the pest or weed control at 1000 ppm is at least 90%.

As for `CS(=O)(=O)Oc1ccc(I)c2c1COC(c1csc(C3CCN(C(=O)Cc4cc(Cl)ccc4Cl)CC3)n1)OC2` (stereo not shown) [Compound 3-20, 4-[4-(6-iodo-9-methylsulfonyloxy-1,5-dihydro-3H-2,4-benzodioxepin-3-yl)-2-thiazolyl]-1-[2-(2,5-dichlorophenyl)acetyl]piperidine], the pest or weed control at 1000 ppm is at least 90%.

`CS(=O)(=O)Oc1c(F)ccc2c1COC(c1csc(C3CCN(C(=O)Cn4nc(C(F)(F)F)cc4C(F)(F)F)CC3)n1)OC2` (stereo not shown) [Compound 2-48, 4-[4-(7-fluoro-6-methylsulfonyloxy-1,5-dihydro-3H-2,4-benzodioxepin-3-yl)-2-thiazolyl]-1-[2-[3,5-bis(trifluoromethyl)-1H-pyrazol-1-yl]acetyl]piperidine] had a pest or weed control at 1000 ppm of at least 90%.

In turn, `CCCCS(=O)(=O)Oc1cccc2c1COC(c1csc(C3CCN(C(=O)Cc4cc(C)ccc4C)CC3)n1)OC2` (stereo not shown) [Compound 3-4, 4-[4-(6-butylsulfonyloxy-1,5-dihydro-3H-2,4-benzodioxepin-3-yl)-2-thiazolyl]-1-[2-(2,5-dimethylphenyl)acetyl]piperidine] came in with a pest or weed control at 1000 ppm of at least 90%.

The compound `COc1ccc(OS(C)(=O)=O)c2c1COC(c1csc(C3CCN(C(=O)Cn4nc(Cl)cc4Cl)CC3)n1)OC2` (stereo not shown) [Compound 2-33, 4-[4-(6-methoxy-9-methylsulfonyloxy-1,5-dihydro-3H-2,4-benzodioxepin-3-yl)-2-thiazolyl]-1-[2-(3,5-dichloro-1H-pyrazol-1-yl)acetyl]piperidine] came in with a pest or weed control at 1000 ppm of at least 90%.

`CS(=O)(=O)Oc1ccc(Br)c2c1COC(c1csc(C3CCN(C(=O)Cn4nc(C(F)(F)F)cc4C(F)(F)F)CC3)n1)OC2` (stereo not shown) [Compound 2-42, 4-[4-(6-bromo-9-methylsulfonyloxy-1,5-dihydro-3H-2,4-benzodioxepin-3-yl)-2-thiazolyl]-1-[2-[3,5-bis(trifluoromethyl)-1H-pyrazol-1-yl]acetyl]piperidine] registered a pest or weed control at 1000 ppm of at least 90%.

Take `CS(=O)(=O)Oc1ccc(OS(C)(=O)=O)c2c1COC(c1csc(C3CCN(C(=O)Cn4nc(C(F)(F)F)cc4C(F)(F)F)CC3)n1)OC2` [Compound 2-54, 4-[4-[6,9-bis(methylsulfonyloxy)-1,5-dihydro-3H-2,4-benzodioxepin-3-yl]-2-thiazolyl]-1-[2-[3,5-bis(trifluoromethyl)-1H-pyrazol-1-yl]acetyl]piperidine]: the pest or weed control at 1000 ppm was at least 90%.

For `COc1ccc(OS(C)(=O)=O)c2c1COC(c1csc(C3CCN(C(=O)Cn4nc(C)cc4C)CC3)n1)OC2` (stereo not shown) [Compound 2-34, 4-[4-(6-methoxy-9-methylsulfonyloxy-1,5-dihydro-3H-2,4-benzodioxepin-3-yl)-2-thiazolyl]-1-[2-(3,5-dimethyl-1H-pyrazol-1-yl)acetyl]piperidine], the pest or weed control at 1000 ppm was at least 90%.

Regarding `CS(=O)(=O)Oc1c(F)ccc2c1COC(c1csc(C3CCN(C(=O)Cc4cc(Cl)ccc4Cl)CC3)n1)OC2` (stereo not shown) [Compound 3-19, 4-[4-(7-fluoro-6-methylsulfonyloxy-1,5-dihydro-3H-2,4-benzodioxepin-3-yl)-2-thiazolyl]-1-[2-(2,5-dichlorophenyl)acetyl]piperidine], the pest or weed control at 1000 ppm was at least 90%.
